Where two headings read alike, the source gives them in different places.
Columns and labels:
[1] = cited from earlier work
[2] = system: patients with idiopathic PD and LIDS
From the text: A total of 65 patients with idiopathic PD and LIDS were enrolled in a phase II study. Major entry criteria were as follows: 1) Hoehn and Yahr Stage II-IV while in “on” state, 2) had moderately to severely disabling LIDS>25% of waking day as determined by a rating of >2 on each of Questions 32 and 33 of the Unified Parkinson's Disease Rating Scale (UPDRS), 3) be on stable doses of levodopa and other medicines for PD for >30 days, 4) have a negative screening urine test for cotinine, and 5) not be a smoker or previous smoker or regular exposure to second-hand smoke. The study consisted of 3 phases: a treatment period of 10 weeks, a 9-day drug taper period, and a 5-day follow-up period. Subjects were randomly assigned to receive either nicotine or placebo (pbo). Dosing began at 1 mg q6 hr and was escalated at 2-week intervals to 6 mg q6 hr (24 mg/day). All subjects were allowed to take ondansetron as rescue medication for the treatment of nausea and/or vomiting for the first 3 days of each dose escalation. Subjects were maintained on 24 mg/day for 4 weeks.
Efficacy was assessed using the UPDRS (total of Parts II+III+IV), sum of Q32+Q33, Unified Dyskiensia Rating Scale (UDysRS) total scores and subscores, Lang-Fahn Dyskinesia Activities of Daily Living Scale (LF-ADL), physician and patient ratings of improvement from baseline in dyskinesias on 7-point CGI-C and PGI-C scales, and responder analyses (subjects with >25% improvement from baseline) on UDysRS total score and LF-ADL, and % subjects with any improvement on PGI-C and CGI-C.
The safety population for all safety analyses consisted of all subjects who received at least 1 dose of nicotine or placebo.

[3] = system: patients with idiopathic PD and LIDS; assay: Phase II clinical trial of nicotine: safety assessments (AEs, laboratory tests, serum cotinine, ECG, JayMidi, MNWS-R); settings: human, in vivo
Procedure: (§1) Safety was assessed by incidences of adverse experiences (AE), clinical laboratory tests, serum cotinine, ECG and vital signs. Impulsive symptoms were assessed using the Jay Modified Minnesota Impulsive Disorders Interview (JayMidi). Withdrawal symptoms were evaluated using the Minnesota Nicotine Withdrawal Scale (MNWS-R).

[4] = system: patients with idiopathic PD and LIDS; remark: listed apart in the source
Procedure: as §1

N[C@@H](Cc1ccc(O)c(O)c1)C(=O)O [Levodopa, L-3,4-dihydroxyphenylalanine (S)-2-amino-3-(3,4-dihydroxyphenyl)propanoic acid]
solubility in water [1]: slightly soluble in water

CN1CCC[C@H]1c1cccnc1 [nicotine, 3-[(2S)-1-methylpyrrolidin-2-yl]pyridine]
UPDRS total scores ([2]; 10 weeks of treatment): did not worsen, but improved | number of UDysRS subscores improved (mean changes from baseline compared to pbo) ([2]; Week 10 (FIG. 3)): 9 of 10 | UPDRS Part III score, maximum mean improvement ([2]; Week 10, change from baseline (FIG. 1)): 2.0 points | LF-ADL responders (>25% improvement from baseline) ([2]; Week 10, p=0.04 versus pbo): 56% | CGI-C pattern compared to pbo ([2]; after 10 weeks (FIG. 4)): similar, but not statistically significant pattern | PGI-C: patients rating themselves as having any degree of improvement ([2]; after 10 weeks, p=0.004 versus pbo (FIG. 4)): 78% | efficacy on LIDS on the majority of patient- and physician-rated outcome measures ([2]; compared to pbo): trend or statistically significant improvement | UPDRS mean change from baseline to Week 10 ([2]; compared to placebo, every visit during drug treatment): numerical improvement | UDysRS total score ([2]; every study visit during the drug-treatment period (FIG. 2)): Mean improvement from baseline and greater separation from pbo | PGI-C: distribution of subjects in each category compared to pbo ([2]; p=0.02): significant | ambulation (UDysRS subscore) ([2]; versus pbo, p=0.01): Statistically significant improvement | changes in ECG parameters [3]: no clinically relevant changes | withdrawal symptoms as assessed by MNWS-R, clinical relevance [3]: not a clinically relevant issue | overall safety and tolerability ([4]; PD patients with LIDS, oral, escalated from 1 mg q6 hr to 6 mg q6 hr (24 mg/day), 10 weeks): generally safe and well-tolerated | withdrawal symptoms, MNWS-R score (maximal score 60) ([4]; Week 10 (end of drug treatment)): 7.5 | relation of SAEs to study medication ([4]; all SAEs): unrelated to study medication | withdrawal symptoms, MNWS-R score (maximal score 60) ([4]; end of the follow-up period): 5.4 | occurrences of impulsivity disorders (positive score on any JayMidi module) ([4]; nicotine group): 1 subject | overall incidence of serious AEs (SAE) ([4]; nicotine group): 4 subjects | percentage of subjects reporting treatment-related AEs ([4]; nicotine group): 54% | subjects who used rescue medication (ondansetron) ([4]; nicotine group): Twenty-nine | treatment-emergent AE: constipation, subjects ([4]; nicotine group): 11% | treatment-emergent AE: dizziness, subjects ([4]; nicotine group): 11% | treatment-emergent AE: fatigue, subjects ([4]; nicotine group): 9% | treatment-emergent AE: nausea, subjects ([4]; nicotine group): 31% | treatment-emergent AE: nightmares, subjects ([4]; nicotine group): 6% | treatment-emergent AE: non-specific pain, subjects ([4]; nicotine group): 9% | treatment-emergent AE: vomiting, subjects ([4]; nicotine group): 6% | subjects withdrawn due to treatment-related AEs ([4]; nicotine group, n=35 randomized): 6 subjects | subjects withdrawn due to treatment-related AEs ([4]; on 4 mg/day): 1 subject | subjects withdrawn due to treatment-related AEs ([4]; on 8 mg/day): 1 subject | subjects withdrawn due to treatment-related AEs ([4]; on 16 mg/day): 2 subjects | subjects withdrawn due to treatment-related AEs ([4]; on 24 mg/day): 2 subjects | serum cotinine levels ([4]; patients treated with nicotine, dose escalation): increased with increasing dose | intensity of the majority of adverse events ([4]; transient in duration): mild or moderate in intensity

From patent US12029734B2, “Compositions and methods for treatment of symptoms in Parkinson's disease patients” (Tyler Medical Research, LLC, priority 2011, dated 2024)
